Data from US11945822B2, “Pyrazolo-triazine and/or pyrazolo-pxrimidine derivatives as selective inhibitor of cyclin dependent kinase” (QURIENT CO., LTD., priority 2018, dated 2024).

Tests used:
RPMI-8226 = test: Cellular RPMI-8226 viability assay (CellTiter-Glo, 72 hours); assay type: cell-based; conditions: Homo sapiens
How it was run: (§1)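 CellTiter-Glo luminescence read in duplicate after 72 h compound exposure (37 °C, 5% CO2); DMSO-only control, final DMSO under 0.1%.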

CDK5/p25 = biological target: T1, CDK5/p25 (Homo sapiens, UniProt Q00535); test: Enzymatic assay for CDK5 (FRET based LANCE Ultra kinase assay); assay type: biochemical; conditions: read-out: CDK5 enzymatic activity (IC50 range)
T1 construct: purchased Invitrogen PR8543B
How it was run: (§2)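 Each CDK complex ([…]) phosphorylated 68 nM ULight-MBP peptide with ATP at Km for 60 min at 23° C., against 8 compound doses (4-fold dilutions). EDTA/Eu-anti-phospho-MBP detection, 60 min, then TR-FRET emission at 615 and 665 nm.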

CDK2/Cyclin A = biological target: T2, CDK2/Cyclin A (Homo sapiens, UniProt P24941); test: Enzymatic assay for CDK2 (FRET based LANCE Ultra kinase assay); assay type: biochemical; conditions: read-out: CDK2 enzymatic activity (IC50 range)
T2 construct: purchased Invitrogen PV6290
How it was run: as §2

H460 = test: Cellular H460 viability assay (CellTiter-Glo, 72 hours); assay type: cell-based; conditions: Homo sapiens, NCI-H460
How it was run: as §1

MOLT-4 = test: Cellular MOLT-4 viability assay (CellTiter-Glo, 72 hours); assay type: cell-based; conditions: Homo sapiens, MOLT4 viability assay
How it was run: as §1

MV4-11 = test: Cellular MV4-11 viability assay (CellTiter-Glo, 72 hours); assay type: cell-based; conditions: Homo sapiens
How it was run: as §1

CDK7/Cyclin H/MNAT1 = biological target: T3, CDK7/Cyclin H/MNAT1 (Homo sapiens, UniProt P50613); test: Enzymatic assay for CDK7 (FRET based LANCE Ultra kinase assay); assay type: biochemical; conditions: for IC50: read-out: CDK7 enzymatic activity (IC50 range)
T3 construct: purchased Invitrogen PR6749B
How it was run: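 Inhibition was measured at Km ATP by time-resolved FRET between a Eu anti-phospho antibody and a phosphorylated ULight peptide. The enzyme was the purified CDK7/cyclin complex, and data were curve-fitted.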

CDK1/Cyclin B = biological target: T4, CDK1/Cyclin B (Homo sapiens, UniProt P06493); test: Enzymatic assay for CDK1 (FRET based LANCE Ultra kinase assay); assay type: biochemical; conditions: read-out: CDK1 enzymatic activity (IC50 range)
T4 construct: purchased Invitrogen PR4768C
How it was run: as §2

T3 sequence (P50613 whole entry): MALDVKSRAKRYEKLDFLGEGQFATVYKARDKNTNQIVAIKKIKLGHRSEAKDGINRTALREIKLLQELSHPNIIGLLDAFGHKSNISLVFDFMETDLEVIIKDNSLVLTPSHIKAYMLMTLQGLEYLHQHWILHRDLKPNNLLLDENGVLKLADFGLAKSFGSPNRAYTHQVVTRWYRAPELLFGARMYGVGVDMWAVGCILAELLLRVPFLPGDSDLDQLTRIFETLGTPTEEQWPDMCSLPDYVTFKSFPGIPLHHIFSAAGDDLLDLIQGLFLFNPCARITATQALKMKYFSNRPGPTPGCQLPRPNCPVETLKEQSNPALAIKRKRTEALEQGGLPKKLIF
T3 sequence (P51946 whole entry partner): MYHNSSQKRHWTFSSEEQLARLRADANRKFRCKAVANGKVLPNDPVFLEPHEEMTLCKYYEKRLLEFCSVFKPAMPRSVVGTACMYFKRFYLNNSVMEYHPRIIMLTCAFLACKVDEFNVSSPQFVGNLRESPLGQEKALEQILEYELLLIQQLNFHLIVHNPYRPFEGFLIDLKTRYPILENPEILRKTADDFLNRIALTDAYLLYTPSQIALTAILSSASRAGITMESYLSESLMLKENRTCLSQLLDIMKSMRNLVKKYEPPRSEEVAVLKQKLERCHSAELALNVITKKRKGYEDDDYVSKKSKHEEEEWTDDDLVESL
T3 sequence (P51948 whole entry partner): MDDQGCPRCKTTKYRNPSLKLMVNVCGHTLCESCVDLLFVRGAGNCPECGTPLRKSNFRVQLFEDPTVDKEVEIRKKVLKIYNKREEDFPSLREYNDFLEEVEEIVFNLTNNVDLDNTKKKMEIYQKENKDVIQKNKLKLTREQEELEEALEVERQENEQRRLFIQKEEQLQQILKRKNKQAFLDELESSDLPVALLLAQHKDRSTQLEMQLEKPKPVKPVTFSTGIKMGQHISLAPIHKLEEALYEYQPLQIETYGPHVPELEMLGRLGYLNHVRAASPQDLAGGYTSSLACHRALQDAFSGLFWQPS
T4 sequence (P06493 whole entry): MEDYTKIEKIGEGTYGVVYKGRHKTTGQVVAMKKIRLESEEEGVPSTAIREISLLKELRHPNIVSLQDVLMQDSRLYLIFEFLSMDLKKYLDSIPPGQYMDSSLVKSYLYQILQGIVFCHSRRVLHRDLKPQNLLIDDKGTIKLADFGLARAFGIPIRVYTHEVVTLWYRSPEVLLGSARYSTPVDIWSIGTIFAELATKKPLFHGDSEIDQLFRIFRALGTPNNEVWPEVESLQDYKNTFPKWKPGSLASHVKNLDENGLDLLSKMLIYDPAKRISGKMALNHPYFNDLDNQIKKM
T4 sequence (P14635 whole entry partner): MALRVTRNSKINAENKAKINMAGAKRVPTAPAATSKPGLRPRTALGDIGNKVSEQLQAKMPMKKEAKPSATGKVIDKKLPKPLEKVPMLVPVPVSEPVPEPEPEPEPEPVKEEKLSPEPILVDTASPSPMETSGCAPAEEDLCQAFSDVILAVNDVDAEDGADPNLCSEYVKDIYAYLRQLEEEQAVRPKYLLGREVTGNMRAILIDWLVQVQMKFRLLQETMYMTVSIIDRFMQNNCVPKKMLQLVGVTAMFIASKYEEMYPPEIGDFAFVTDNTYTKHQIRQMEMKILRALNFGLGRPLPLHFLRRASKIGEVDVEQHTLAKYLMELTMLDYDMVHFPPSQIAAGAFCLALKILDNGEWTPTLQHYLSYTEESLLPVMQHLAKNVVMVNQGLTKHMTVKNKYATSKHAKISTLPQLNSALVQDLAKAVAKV
T1 sequence (Q00535 whole entry): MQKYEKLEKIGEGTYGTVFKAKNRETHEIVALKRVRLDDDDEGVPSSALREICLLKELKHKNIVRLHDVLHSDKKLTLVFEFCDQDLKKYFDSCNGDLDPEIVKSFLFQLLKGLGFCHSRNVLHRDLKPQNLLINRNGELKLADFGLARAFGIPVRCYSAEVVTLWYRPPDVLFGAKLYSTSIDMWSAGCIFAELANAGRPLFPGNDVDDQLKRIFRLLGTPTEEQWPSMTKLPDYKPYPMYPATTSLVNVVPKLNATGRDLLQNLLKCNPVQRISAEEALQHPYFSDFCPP
T1 sequence (Q15078 99-307 partner limits assumed): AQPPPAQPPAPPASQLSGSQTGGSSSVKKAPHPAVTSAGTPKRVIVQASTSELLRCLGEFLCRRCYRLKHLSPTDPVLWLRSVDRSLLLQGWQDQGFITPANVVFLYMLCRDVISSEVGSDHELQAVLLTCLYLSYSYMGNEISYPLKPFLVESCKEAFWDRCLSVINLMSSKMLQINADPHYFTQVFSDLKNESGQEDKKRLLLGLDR

Row | IC50 (RPMI-8226) | IC50 (CDK5/p25) | IC50 (CDK2/Cyclin A) | IC50 (H460) | IC50 (MOLT-4) | IC50 (MV4-11) | CDK1/CDK7: Selectivity of CDK7 inhibition over CDK1 inhibition (CDK7/Cyclin H/MNAT1) | IC50 (CDK7/Cyclin H/MNAT1) | IC50 (CDK1/Cyclin B) | Compound | CDK2/CDK7: Selectivity of CDK7 inhibition over CDK2 inhibition (CDK7/Cyclin H/MNAT1) | CDK5/CDK7: Selectivity of CDK7 inhibition over CDK5 inhibition (CDK7/Cyclin H/MNAT1)
1 | < 1000 nM | 100 to 1000 nM | > 1000 nM | < 1000 nM | 1000 to 10000 nM |  | A (A=greater than 200 fold) | < 100 nM | > 1000 nM | CC(C)c1cnn2c(NCc3ccccc3N3CCc4ccccc43)nc(N3CCC(N)CC3)nc12 [Compound 76] | B (B=less than 200 fold, but greater than 20 fold) | B (B=less than 200 fold, but greater than 20 fold)
2 | < 1000 nM | 100 to 1000 nM | 100 to 1000 nM | < 1000 nM | 1000 to 10000 nM | < 1000 nM | A (A=greater than 200 fold) | < 100 nM | 100 to 1000 nM | CC(C)c1cnn2c(NCc3ccccc3-c3ncc4ccccc4n3)nc(N3CCC(N)CC3)nc12 [Compound 77] | B (B=less than 200 fold, but greater than 20 fold) | B (B=less than 200 fold, but greater than 20 fold)
3 | < 1000 nM | < 100 nM | 100 to 1000 nM | < 1000 nM | 1000 to 10000 nM | < 1000 nM | A (A=greater than 200 fold) | < 100 nM | 100 to 1000 nM | CC(C)c1cnn2c(NCc3ccccc3-c3cc4ccccc4cn3)nc(N3CCC(N)CC3)nc12 [Compound 78] | B (B=less than 200 fold, but greater than 20 fold) | B (B=less than 200 fold, but greater than 20 fold)
4 | 1000 to 10000 nM | > 1000 nM | > 1000 nM |  | > 10000 nM | < 1000 nM | A (A=greater than 200 fold) | < 100 nM | > 1000 nM | CC(C)c1cnn2c(NCc3ccccc3-c3nccc4cc(NC(=O)CCCN(C)C)ccc34)nc(N3CCC(N)CC3)nc12 [Compound 92] | A (A=greater than 200 fold) | A (A=greater than 200 fold)
5 | < 1000 nM | 100 to 1000 nM | > 1000 nM | < 1000 nM | 1000 to 10000 nM |  | A (A=greater than 200 fold) | < 100 nM | > 1000 nM | CC(C)c1cnn2c(NCc3ccccc3-c3nc4ccccc4n3C)nc(N3CCC(N)CC3)nc12 [Compound 96] | A (A=greater than 200 fold) | B (B=less than 200 fold, but greater than 20 fold)
6 | < 1000 nM | 100 to 1000 nM | 100 to 1000 nM | < 1000 nM | 1000 to 10000 nM | < 1000 nM | A (A=greater than 200 fold) | < 100 nM | > 1000 nM | CC(C)c1cnn2c(NCc3ccccc3-n3cc4cc(Cl)ccc4n3)nc(N3CCC(N)CC3)nc12 [Compound 103] | B (B=less than 200 fold, but greater than 20 fold) | B (B=less than 200 fold, but greater than 20 fold)
7 | < 1000 nM | 100 to 1000 nM | 100 to 1000 nM | < 1000 nM | 1000 to 10000 nM | < 1000 nM | A (A=greater than 200 fold) | < 100 nM | > 1000 nM | CCCc1ccc2nn(-c3ccccc3CNc3nc(N4CCC(N)CC4)nc4c(C(C)C)cnn34)cc2c1 [Compound 106] | B (B=less than 200 fold, but greater than 20 fold) | B (B=less than 200 fold, but greater than 20 fold)
8 | < 1000 nM | 100 to 1000 nM | 100 to 1000 nM | < 1000 nM | 1000 to 10000 nM | < 1000 nM | A (A=greater than 200 fold) | < 100 nM | > 1000 nM | CC(C)Oc1ccc2cn(-c3ccccc3CNc3nc(N4CCC(N)CC4)nc4c(C(C)C)cnn34)nc2c1 [Compound 107] | A (A=greater than 200 fold) | B (B=less than 200 fold, but greater than 20 fold)
9 | < 1000 nM |  |  | < 1000 nM | < 1000 nM | < 1000 nM |  |  |  | CC(C)c1cnn2c(NCc3ccccc3-c3cc4cccc(F)c4[nH]3)nc(N3CCC(N)CC3)nc12 [Compound 113] |  | 
10 | 1000 to 10000 nM | 100 to 1000 nM | 100 to 1000 nM |  | 1000 to 10000 nM | < 1000 nM | A (A=greater than 200 fold) | < 100 nM | > 1000 nM | CC(C)c1cnn2c(NCc3ccccc3-c3cc4ccccc4[nH]3)nc(OC3CCN(C)CC3)nc12 [Compound 115] | B (B=less than 200 fold, but greater than 20 fold) | B (B=less than 200 fold, but greater than 20 fold)
11 | 1000 to 10000 nM | 100 to 1000 nM | > 1000 nM | < 1000 nM | 1000 to 10000 nM | < 1000 nM | A (A=greater than 200 fold) | < 100 nM | > 1000 nM | CC(C)c1cnn2c(NCc3ccccc3-n3cccn3)nc(-c3ccc(Cl)c(C4CCNCC4)c3)nc12 [Compound 170] | B (B=less than 200 fold, but greater than 20 fold) | B (B=less than 200 fold, but greater than 20 fold)

Row | Compound | IC50 (RPMI-8226) | IC50 (CDK5/p25) | IC50 (CDK2/Cyclin A) | IC50 (H460) | IC50 (MOLT-4) | IC50 (MV4-11) | CDK1/CDK7: Selectivity of CDK7 inhibition over CDK1 inhibition (CDK7/Cyclin H/MNAT1) | IC50 (CDK7/Cyclin H/MNAT1) | IC50 (CDK1/Cyclin B) | CDK2/CDK7: Selectivity of CDK7 inhibition over CDK2 inhibition (CDK7/Cyclin H/MNAT1) | CDK5/CDK7: Selectivity of CDK7 inhibition over CDK5 inhibition (CDK7/Cyclin H/MNAT1)
12 | CC(C)c1cnn2c(NCc3cccc4ccc(C5CC5)nc34)nc(N3CCC(N)CC3)nc12 [Compound 71] | 1000 to 10000 nM | 100 to 1000 nM | > 1000 nM | 1000 to 10000 nM | 1000 to 10000 nM | 1000 to 10000 nM | B (B=less than 200 fold, but greater than 20 fold) | < 100 nM | > 1000 nM | B (B=less than 200 fold, but greater than 20 fold) | B (B=less than 200 fold, but greater than 20 fold)
13 | CC(C)c1cnn2c(NCc3ccccc3-c3cn4ccccc4n3)nc(N3CCC(N)CC3)nc12 [Compound 110] | < 1000 nM | < 100 nM | < 100 nM | < 1000 nM | < 1000 nM | < 1000 nM | B (B=less than 200 fold, but greater than 20 fold) | < 100 nM | 100 to 1000 nM | B (B=less than 200 fold, but greater than 20 fold) | C (C=less than 20 fold)
